{"source": "patent US20240409935A1", "about": "“Atg8ylation coordinates stress granule formation and mTOR inactivation in response to lysosomal damage” (priority 2023, published 2024)", "format_in_all_cases": "cell-based, human", "key": {"[1]": {"test_system": "U2OS wildtype (WT) and ΔΔG3BP1/2 cells", "assay": "Propidium iodide (PI) uptake cell death assay (HCM) in U2OS WT and ΔΔG3BP1/2 cells", "details": "ΔΔG3BP1/2 cells compared to wildtype U2OS cells, 2 mM LLOMe for 30 min", "protocol": "Cells Were treated with 2 mM LLOMe for 30 min, and then stained with propidium iodide (PI) (dead cells) and Hoechst-33342 (total cells). White masks, algorithm-defined cell boundaries (primary objects); red masks, computer-identified PI^+ nuclei (target objects). […] Cells Were treated with 2 mM LLOMe for 30 min. […] Cells Were treated with 2 mM in the presence or absence of 10 μg/ml cycloheximide (CHX) for 30 min, and then stained with PI (dead cells) and Hoechst-33342 (total cells). […] Scale bar, 10 μm. […] Cells Were treated with 2 mM LLOMe with or without CHX for 30 min, and then stained using Live/Dead™ stain kit (ThermoFisher). […] (i) HCM images: white masks, algorithm-defined cell boundaries; green masks, computer-identified eIF4G puncta; red masks, computer-identified PI^+ nuclei (target objects); (ii and iii) corresponding HCM quantification. […]\nHow does SG formation affect cell fate during lysosomal damage? […] The inventors quantified the number of SGs using the canonical SG marker polyA RNA (Ivanov et al., 2019) via high-content microscopy (HCM) (FIG. S1B) and verified the depletion of SG formation in ΔΔG3BP1/2 cells when exposed to the lysosome-specific damaging agent L-leucyl-L-leucine methyl ester (LLOMe) (Jia et al., 2022; Tan et al., 2022; Thiele et al., 1990) (FIG. 7SB). […]"}, "[2]": {"test_system": "polyA RNA in G3BP1 puncta", "assay": "Confocal microscopy of G3BP1 and polyA RNA (Cy3-oligo[dT]) by FISH in U2OS cells", "details": "2 mM LLOMe for 30 min"}, "mTOR": {"test_system": "mTOR", "assay": "Immunoblot analysis of S6K1 (T389) phosphorylation in HeLa cells", "details": "HeLa (WT) cells, 4 mM LLOMe for 30 min"}, "[3]": {"test_system": "G3BP1 puncta in Huh7 cells", "assay": "HCM quantification of G3BP1 puncta in Huh7 cells", "details": "2 mM LLOMe for 30 min"}}, "data": [{"smiles": "COC(=O)[C@H](CC(C)C)NC(=O)[C@@H](N)CC(C)C", "note": "[LLOMe, L-leucyl-L-leucine methyl ester]", "values": [{"measurement": "cell death by PI uptake assay", "setting": "[1]", "result": "significant cell death"}, {"measurement": "overlap of G3BP1 puncta with polyA RNA probe (Cy3-oligo-dT, FISH)", "setting": "[2]", "result": "completely overlapped with polyA RNA probe"}, {"measurement": "pT389 S6K levels (mTOR activity)", "setting": "mTOR", "result": "drop in pT389 S6K levels"}, {"measurement": "SG response (G3BP1 puncta)", "setting": "[3]", "result": "SG response was detected"}]}]}
